Data: US9517222B2, “Method for the treatment of senile dementia of the Alzheimer's type” (Phenomenome Discoveries Inc., priority 2007, dated 2016)

Tests used:
Type in all cases: cell-based
[1] = system: plasmalogen-deficient NRel-4 cells; test: Restoration of PtdEt and EtnPl pools in vitro, plasmalogen-deficient NRel-4 cells; conditions: 20 μM, 72 hours
Description: (§1) FIGS. 25A-B show the relative change in the total EtnPls and PtdEt content. […] Values are normalized to untreated control CHO cells, and are an average of three independent experiments. Statistical significance was determined using a two-tailed t-test.
(§2) FIGS. 26A-B show the relative change in the DHA-EtnPls and DHA-PtdEt content. […] Values are normalized to untreated control CHO cells, and are an average of three independent experiments. Statistical significance was determined using a two-tailed t-test.
(§3) To investigate whether exogenous metabolic precursors can restore the ethanolamine phospholipids deficiency in vitro, a CHO cell line deficient in plasmalogen synthesis (NRel-4) was treated with the metabolic precursors 5a (sn-1-alkyl,sn-2-DHA glycerol) for 72 hours at a concentration of 20 μM, and its lipid profile was compared with the wild type cell line.

[2] = system: wild type CHO cells; test: Restoration of PtdEt and EtnPl pools in vitro, wild type CHO cells; conditions: 20 μM, 72 hours
Description: as §1, §2, §3

[3] = system: NRel-4 cell line; test: Total, free and esterified cholesterol in cultured cells (Cholesterol Quantification kit)
Description: Total cholesterol (solid bars), esterified cholesterol (hatched bars), and free cholesterol (dotted) content is represented as μg per million cells. C_V: control CHO cells treated with ethanol carrier; N_V: NRel4 cells treated with ethanol carrier; N_5a: Nrel-4 cells treated with metabolic precursor 5a (20 μM).
To test the effect of metabolite precursors on total and esterified cholesterol in vitro, the CHO/NRel-4 cell line model was used. […] CHO cell line cultured in the presence of the ethanol vehicle (C_V) has 6.66 μg total cholestero/million cells. This reflects the wild type phenotype, and was used for normalization. The NRel-4 cell line deficient in plasmalogen synthesis cultured in the presence of ethanol vehicle (N_V) had 10.75 μg total cholestero/million cells (61% higher than control). Culturing the deficient cells with the metabolic precursor 5a (sn-1-alkyl, sn-2-DHA glycerol) for 72 hours at a concentration of 20 µM (N_5a) reduced the total cholesterol content to […] (24% higher than control). […] Treatment with 5a reduced the free cholesterol content to 5.8 μg/million cells. A reciprocal trend was observed when assaying the fraction of cholesterol that was esterified in the cell lines.

CC/C=C\C/C=C\C/C=C\C/C=C\C/C=C\C/C=C\CCC(=O)OC(CO)COCCCCCCCCCCCCCCCC (racemic) [Metabolite 5a, (4Z,7Z,10Z,13Z,16Z,19Z)-1-(hexadecyloxy)-3-hydroxypropan-2-yl docosa-4,7,10,13,16,19-hexanenoate]
Relative total EtnPls content ([1]; normalized to untreated control CHO cells, vehicle 10.8%): 44.2%
Total DHA-EtnPls pool ([1]; of CHO levels, vehicle 8.7%): 72.3%
Total PtdEt content ([1]; of the control CHO): 55.9%
DHA-PtdEt pool ([1]; vs untreated control CHO): 110.6%
Relative total EtnPls content ([2]; normalized to untreated control CHO cells): 86.9%
Total DHA-EtnPls pool ([2]; of CHO levels): 136.8%
Total PtdEt content ([2]; of untreated control): 54.9%
DHA-PtdEt pool ([2]; vs untreated control CHO): 93.5%
Esterified cholesterol ([3]; NRel-4 cells treated with 5a, vehicle NRel-4 1.84): 2.49 μg/million cells
Free cholesterol content ([3]; NRel-4 cells treated with 5a, vehicle NRel-4 8.9, CHO 4.5): 5.8 μg/million cells
Total cholesterol content ([3]; NRel-4 cells, 72 hours, 20 μM (N_5a), vehicle NRel-4 10.75, CHO 6.66): 8.28 μg/million cells
Total cholesterol content higher than control ([3]; NRel-4 cells, 72 hours, 20 μM, vs CHO vehicle control): 24%
Increase in the esterified fraction of cholesterol ([3]; NRel-4 cells, vs vehicle-treated NRel-4): 34%
